Laboratory results: paper PMC9975698, “Hyperoside alleviates toxicity of β-amyloid via endoplasmic reticulum-mitochondrial calcium signal transduction cascade in APP/PS1 double transgenic Alzheimer's disease mice” (Redox Biology, 2023)

Experiments:
APP = assay: Real-time quantitative PCR of APP mRNA in HT22 cells; assay type: cell-based; settings: HT22 cells after HYP treatment
Description: RNA was extracted from the HT22 cell using FavorPrep™ Blood/Cultured Cell Total RNA Purification Mini Kit (Favorgen Biotech Corp.). RNA concentration was determined using the NanoDrop 2000c Spectrophotometer (Thermo Scientific). 1 μg of total RNA was used to reverse transcribe to its corresponding cDNA by using the Transcriptor Universal cDNA Master mix (Roche, USA). Quantitative PCR was then performed with the addition of PowerUp™ SYBR® Green Master Mix (Applied Biosystems) using the ViiA™ 7 Real-Time PCR System (Applied Biosystems). Specific primers (Tech Dragon Ltd., Hong Kong) were designed by employing ThermoFisher Scientific's online OligoPerfect™ Designer software and then verified with NCBI's Primer‐BLAST software to confirm specific recognition of the target genes. Gene expression levels were normalized to actin (control) and analyzed using the ΔΔCT method. Three independent experiments with three replicates per group were analyzed for each primer.

[1] = test system: Aβ oligomers, Aβ fibrils, Aβ (1–16); assay: Dot blot of Aβ forms in HT22 cells; assay type: cell-based
Description: 4 μL of prepared cell or animal sample protein solutions were dotted for adsorption onto methanol-pre-activated PVDF membranes and then blocked with 5% non-fat dry milk in Tris-buffered saline and Tween 20 for 1 h. The samples were incubated overnight at 4 °C with anti-amyloid fibril primary antibody [mOC87] (Abcam, MA, USA), anti-amyloid oligomer A11 (Invitrogen, CA, USA) or purified anti-β-amyloid (1–16) antibody (clone 6E10) (Biolegend, CA, USA) (1:1000), followed by HRP-conjugated secondary antibody. Protein bands were detected using Super Signal Sensitive ECL Western Blotting Detection Reagent (Beyotime, Beijing, China) and observed using a gel imaging device (Amersham Imager 800, GE, Tokyo, Japan).

APP and APP-β = assay: Western blot of APP and APP-β in HT22 cells; assay type: cell-based
Description: After HYP treatment, the cells were lysed with RIPA. Protein concentrations were determined by Bio-Rad protein assay (Bio-Rad Laboratories, CA, USA). After electrophoretic separation, the gels were blotted and stained with primary antibodies. Binding of antibodies was visualized with peroxidase-coupled secondary antibodies using ECL Western Blotting detection reagents (Invitrogen, Scotland, UK). Band intensities were quantified using ImageJ software. Data were obtained from three independent experiments.

APP/PS1 mice [2] = assay: Dot blot of Aβ forms in cortex and hippocampus lysates; assay type: in vivo
Description: 4 μL of prepared cell or animal sample protein solutions were dotted for adsorption onto methanol-pre-activated PVDF membranes and then blocked with 5% non-fat dry milk in Tris-buffered saline and Tween 20 for 1 h. The samples were incubated overnight at 4 °C with anti-amyloid fibril primary antibody [mOC87] (Abcam, MA, USA), anti-amyloid oligomer A11 (Invitrogen, CA, USA) or purified anti-β-amyloid (1–16) antibody (clone 6E10) (Biolegend, CA, USA) (1:1000), followed by HRP-conjugated secondary antibody. Protein bands were detected using Super Signal Sensitive ECL Western Blotting Detection Reagent (Beyotime, Beijing, China) and observed using a gel imaging device (Amersham Imager 800, GE, Tokyo, Japan). All animal care and experimental procedures were performed in accordance with the “Institutional Animal Care and User Committee Guidelines” of the Macau University of Science and Technology. APP/PSEN1 (APP/PS1) mice (N000175) were purchased from the Nanjing Institute of Biomedical Sciences, Nanjing University, China, weighing 25 ± 5 g. The animals were housed in a temperature-controlled room with a 12 h light/dark cycle and given ad libitum food and water. Male mice were randomly divided into the following 6 experimental groups. […]

HT22 cells = assay: Cytoplasmic calcium dynamics (FLIPR Calcium 6); assay type: cell-based
Description: Intracellular Ca^2+ dynamics were determined using the FLIPR Calcium 6 Assay Kit (Molecular Devices) according to the manufacturer's instructions. Briefly, HT22 was housed at 4 × 10^4 cells per well in a black-walled and clear-bottom 96 multi-well plate (Costar, MA, USA) and treated with Calcium 6 reagent for 1 h.

APP/PS1 mice [3] = assay: Y-maze test; assay type: in vivo; settings: HYP 20/40/80 mg/kg nasal, every 3 days, after 7 weeks
Description: All animal care and experimental procedures were performed in accordance with the “Institutional Animal Care and User Committee Guidelines” of the Macau University of Science and Technology. APP/PSEN1 (APP/PS1) mice (N000175) were purchased from the Nanjing Institute of Biomedical Sciences, Nanjing University, China, weighing 25 ± 5 g. The animals were housed in a temperature-controlled room with a 12 h light/dark cycle and given ad libitum food and water. Male mice were randomly divided into the following 6 experimental groups. (a) wild-type group (n = 6), (b) APP/PS1 group (n = 6), (c) HYP (20 mg/kg group) (n = 7), (d) HYP (40 mg/kg) group (n = 8), (e) HYP (80 mg/kg) group (n = 8) and (f) memantine (MEM) (10 mg/kg) positive control group (n = 8). HYP was dissolved in the solvent containing 10% DMSO, 40% PEG300 and 5% Tween-80 in PBS, and administrated via nasal injection for every 3 days with a volume of 0.5 μL/g of body weight for 8 consecutive weeks. Y-maze tests assess cognitive changes, short-term spatial working memory (by spontaneous alternation), and exploratory activity (by total number of arm choices) of mice. […] The number of total arm choices and sequence of arm choices were recorded. The percentage of alternation can be calculated as the ratio of total number of alternations / the number of arms entered x 100%. […]

O=c1c(O[C@@H]2O[C@H](CO)[C@H](O)[C@H](O)[C@H]2O)c(-c2ccc(O)c(O)c2)oc2cc(O)cc(O)c12 [HYP, Quercetin-3-O-β-D-galactopyranoside]
mRNA transcriptional level of APP (APP): no significant effect | level of different form of Aβ ([1]; HT22 cells incubated with exogenous Aβ for 24 h): lowered the level of different form of Aβ | endogenous level of Aβ oligomers, Aβ fibrils and total Aβ (1–16) ([1]; HT22 cells without exogenous Aβ): lowered the endogenous level of Aβ Oligomers (A11), Aβ Fibrils (mOC87) and total Aβ (1–16) (6E10) | protein level of APP and APP-β (APP and APP-β): reduced the protein level of both APP and APP-β | level of oligomeric, fibrillar and total Aβ (dot blot) (APP/PS1 mice [2]): reduced the level of both oligomeric and fibrillar form of Aβ, without altering the level of total Aβ | dynamic Ca2+ level induced by Aβ (HT22 cells; HT22 cells, Aβ 30 μM + HYP 20–80 μM, calcium-containing HBSS): decreased the level of Ca^2+ in a dose dependent manner | dynamic Ca2+ level induced by Aβ (HT22 cells; HT22 cells, Aβ 30 μM + HYP 20–80 μM, calcium-free HBSS): downregulated the Aβ -induced level of Ca^2+ in a dose-dependent manner | dynamic Ca2+ level induced by Aβ (HT22 cells; si-RyR2 HT22 cells, aggregated Aβ 30 μM + HYP 40 μM): restored the Aβ-induced dishomeostasis of Ca^2+ in si-RyR2 HT22 cells (Fig. 9H) to a lesser extent | spatial working memory (Y-maze alternation) (APP/PS1 mice [3]): resumed to a level comparable to WT mice group
